The values below come from PMC8000592, “Discovery and Optimization of Selective Inhibitors of Meprin α (Part I)” (Pharmaceuticals, 2021).

Molecules are shown by their SMILES. Like-named read-outs stand apart in the source and are kept apart here. Peptide text beside a SMILES is read from it. * marks the point of attachment. Dnp = O=[N+]([O-])c1ccc(*)c([N+](=O)[O-])c1; Mca = COc1ccc2c(CC(=O)*)cc(=O)oc2c1

The term IC50 denotes the point on the concentration scale where inhibition reaches its midpoint. The Ki is the equilibrium dissociation constant of an inhibitor or competing ligand from its target. What is called Km is the substrate concentration at which the rate is half of its maximum.

The target of assay [1] is T1, meprin α (Homo sapiens, UniProt Q16819).
T1 sequence (Q16819 66-593 limits assumed): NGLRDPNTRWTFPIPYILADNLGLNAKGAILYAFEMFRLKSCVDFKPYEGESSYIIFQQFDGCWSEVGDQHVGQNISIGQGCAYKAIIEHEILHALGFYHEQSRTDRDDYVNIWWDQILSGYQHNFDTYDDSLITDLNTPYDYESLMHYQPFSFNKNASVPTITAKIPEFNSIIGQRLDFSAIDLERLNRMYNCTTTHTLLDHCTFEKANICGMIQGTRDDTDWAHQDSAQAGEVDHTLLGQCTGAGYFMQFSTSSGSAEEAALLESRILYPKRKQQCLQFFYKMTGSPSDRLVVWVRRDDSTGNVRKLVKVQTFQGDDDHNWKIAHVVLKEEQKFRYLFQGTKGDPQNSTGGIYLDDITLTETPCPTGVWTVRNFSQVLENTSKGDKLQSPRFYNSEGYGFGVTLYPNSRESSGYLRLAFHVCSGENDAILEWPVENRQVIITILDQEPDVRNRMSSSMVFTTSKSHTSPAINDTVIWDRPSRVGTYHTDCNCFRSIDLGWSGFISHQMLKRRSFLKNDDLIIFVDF
The assay is described as follows: Meprin α assay, fluorogenic substrate (Mca)-YVADAPK-(K-ε-Dnp), 384 and 1536 well plate formats. Format: biochemical. The text has this:
(§1) The meprin α and meprin β assays, which utilize the substrates (Mca)-YVADAPK-(K-ε-Dnp) and (Mca)-EDEDED-(K-ε-Dnp), respectively, have been described previously. To enable an ultra-high-throughput screening (uHTS) campaign, we proceeded to miniaturize both assays to 1536 well plate format (wpf). First, we recapitulated the assays in 1536 well plate using reagents at the same concentrations as in 384 well plate format assays by scaling the volume down by the factor of 2.5.
(§2) Both assays followed the same general protocol. A 5 µL measure of 2 × enzyme solution (2.6 and 0.1 nM for meprin α and meprin β, respectively) in assay buffer (50 mM Hepes, 0.01% Brij-35, pH 7.5) was added to solid bottom black 384 low volume plates (Nunc, cat# 264705). Next, 75 nL of test compounds or pharmacological control (actinonin or NFF449) were added to corresponding wells using a 384-pin tool device (V&P Scientific, San Diego, CA, USA). After 30 min incubation at RT, the reactions were started by addition of 5 µL of 2 × solutions of substrates (20 µM, mepin α substrate Mca-YVADAPK-K(Dnp) or meprin β substrate Mca-EDEDED-K(Dnp)). Reactions were incubated at RT for 1 h, after which the fluorescence was measured using the Synergy H4 multimode microplate reader (Biotek Instruments) (λexcitation = 324 nm, λemission = 390 nm).
(§3) Both assays followed the same general protocol. A 2 µL portion of 2 × enzyme solution (1.3 and 0.0125 nM for meprin α and meprin β, respectively) in assay buffer (50 mM Hepes, 0.01% Brij-35, pH 7.5) was added to solid bottom black 1536 low volume plates (Corning cat# 7261). Next, 30 nL of test compounds or pharmacological control (actinonin or NFF449) was added to corresponding wells using a 1536 pin tool device (V&P Scientific, San Diego). After 30 min incubation at RT, the reactions were started by addition of 2 µL of 2x solutions of substrates (20 µM, meprin α substrate Mca-YVADAPK-K(Dnp) or meprin β substrate Mca-EDEDED-K(Dnp)). Reactions were incubated at RT for 1 h, after which the fluorescence was measured using the Viewlux multimode microplate reader (Perkin Elmer) (λexcitation = 324 nm, λemission = 390 nm).
(§4) The miniaturized 1536-well plate format meprin α and meprin β assays were used to screen a collection of approximately 650,000 compounds (The Scripps Research library, La Jolla, CA, USA) on the automated Kalypsys/GNF platform at The Scripps Research Molecular Screening Center (SRMSC, Jupiter, FL, USA: http://hts.florida.scripps.edu/). Both uHTS campaigns were run separately but in a similar manner. Briefly, the first step was the primary screen of all test compounds as singlicates against the meprin α and meprin β target at a final concentration of 7.0 μM. Next, compounds selected as primary hits were cherry-picked and retested in triplicate against the primary screen target and its antitarget (meprin α for the meprin β screening effort, and vice versa) at a same final concentration of 7.0 μM. The additional counter screen assays against related metzincins (MMP-8, MMP-14, and ADAM10) were performed in triplicate at a final concentration of 7.0 μM. The final step was the titration of selected hits as 10-point, 1:3 serial dilutions in both the target and antitarget assay, starting at a final nominal concentration of 17 μM. […] Wells treated with DMSO only were used as negative controls and 0% inhibition reference. […] All data generated during this effort were uploaded to the SRMSC’s institutional screening database (Assay Explorer, Symyx). Sample to background (S/B) ratios, as well as Z and Z’ values, were calculated on a per plate basis as described 14. Curve fitting and resulting IC50 determinations were performed as previously reported.

Assay [2] has as its target T2, meprin β (Homo sapiens, UniProt Q16820).
T2 sequence (Q16820 62-594 limits assumed): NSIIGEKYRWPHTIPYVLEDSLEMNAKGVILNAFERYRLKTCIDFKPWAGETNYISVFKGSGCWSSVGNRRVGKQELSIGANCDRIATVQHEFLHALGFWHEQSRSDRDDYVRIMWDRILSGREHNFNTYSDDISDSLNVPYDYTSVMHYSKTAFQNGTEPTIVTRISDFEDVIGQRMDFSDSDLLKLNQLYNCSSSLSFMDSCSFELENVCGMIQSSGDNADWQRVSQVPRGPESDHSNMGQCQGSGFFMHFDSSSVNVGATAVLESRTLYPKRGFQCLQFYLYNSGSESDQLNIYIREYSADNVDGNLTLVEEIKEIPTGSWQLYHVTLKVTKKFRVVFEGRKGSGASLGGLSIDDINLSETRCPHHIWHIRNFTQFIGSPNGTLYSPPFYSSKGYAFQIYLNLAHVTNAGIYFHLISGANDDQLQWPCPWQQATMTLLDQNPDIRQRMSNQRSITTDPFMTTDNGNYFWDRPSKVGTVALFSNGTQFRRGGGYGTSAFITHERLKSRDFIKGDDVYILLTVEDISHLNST
The assay is described as follows: Meprin β assay, fluorogenic substrate (Mca)-EDEDED-(K-ε-Dnp), 384 and 1536 well plate formats. Format: biochemical. The settings on record: read-out: IC50.
Source text: as §1, §2, §3, §4

Assay [3] deals with meprin α. As to conditions: cited from earlier work.
Assay [4] has as its system meprin β. As to conditions: cited from earlier work.
The test system of another assay is MMP and ADAM. As to conditions: cited from earlier work; for effect on MMP and ADAM activity: 200 µM inhibitor.
Assay [5] concerns the target T1, meprin α. The assay is described as follows: Kinetic parameters of meprin α mediated proteolysis of its substrate. It is filed as biochemical. The settings on record: proteolysis by meprin α, 25 °C. Here is the method:
Next, we performed substrate optimization to achieve balanced assay conditions defined as [S]/KM = 1 [19]. In order to do that, we first determined kinetic parameters of proteolysis of meprin α and meprin β substrates by the respective enzymes (Figure 4A,B). […] To optimize substrate concentrations, both assays were run for 90 min at three different substrate concentrations (10, 5, and 2.5 µM) which included the concentration at which the assays were recapitulated in 1536 wpf (10 µM for both meprin α and meprin β) and the concentration approximating [S]/KM = 1 condition (2.5 µM). Enzyme concentrations were fixed at 1.3 nM for meprin α and 0.0125 nM for meprin β. […]
Substrate stock solutions were prepared at various concentrations in HTS assay buffer (50 mM Hepes, 0.01% Brij-35, pH 7.5). […] Fluorescence was measured on a multimode microplate reader Synergy H1 (Biotek Instruments, Winooski, VT, USA) using λexcitation = 324 nm and λemission = 393 nm. Rates of hydrolysis were obtained from plots of fluorescence versus time, using data points from only the linear portion of the hydrolysis curve. The slope from these plots was divided by the fluorescence change corresponding to complete hydrolysis and then multiplied by the substrate concentration to obtain rates of hydrolysis in units of μM/s. […]

As for `CCCCC[C@H](CC(=O)NO)C(=O)N[C@H](C(=O)N1CCC[C@H]1CO)C(C)C` [Actinonin, actinonin], the increased apparent potency at meprin α [1] (2.5 µM substrate condition) turned out to be 2 fold. The IC50 on meprin α [1] (1536 wpf, 1.3 nM enzyme, substrate 2.5uM, time 30 min, read-out: Actinonin IC50) was 3 nM; on meprin α [1] (1536 wpf, 1.3 nM enzyme, substrate 2.5uM, time 60 min, read-out: Actinonin IC50), 3.4 nM; at meprin α [1] (1536 wpf, 1.3 nM enzyme, substrate 5uM, time 30 min, read-out: Actinonin IC50), 3.2 nM; at meprin α [1] (1536 wpf, 1.3 nM enzyme, substrate 10uM, time 30 min, read-out: Actinonin IC50), 5.4 nM; at meprin α [1] (1536 wpf, 1.3 nM enzyme, substrate 10uM, time 60 min, read-out: Actinonin IC50), 6.4 nM; on meprin α [1] (1536 wpf, 1.3 nM enzyme, substrate 10uM, time 90 min, read-out: Actinonin IC50), 6.9 nM. The IC50 was 5.18 nM at meprin α [1] (1536 wpf, enzyme 0.32nM, time 30 min, read-out: Actinonin IC50); 5.54 nM at meprin α [1] (1536 wpf, enzyme 0.32nM, time 60 min, read-out: Actinonin IC50); 5.83 nM at meprin α [1] (1536 wpf, enzyme 0.32nM, time 90 min, read-out: Actinonin IC50); 4.11 nM on meprin α [1] (1536 wpf, enzyme 0.65nM, time 30 min, read-out: Actinonin IC50); 4.99 nM on meprin α [1] (1536 wpf, enzyme 0.65nM, time 60 min, read-out: Actinonin IC50); 5.2 nM at meprin α [1] (1536 wpf, enzyme 0.65nM, time 90 min, read-out: Actinonin IC50). The IC50 worked out at 4.84 nM on meprin α [1] (1536 wpf, enzyme 1.3nM, time 30 min, read-out: Actinonin IC50); 5.94 nM at meprin α [1] (1536 wpf, enzyme 1.3nM, time 60 min, read-out: Actinonin IC50); 6.33 nM on meprin α [1] (1536 wpf, enzyme 1.3nM, time 90 min, read-out: Actinonin IC50); 11 nM on meprin α [1] (Meprin α 384 wpf, read-out: IC50); 5.7 nM on meprin α [1] (Meprin α 1536 wpf, read-out: IC50); 2.9 ± 0.12 nM on meprin α [1] (control compound in primary HTS campaign, n = 11 plates, read-out: IC50). Moreover, the IC50 at meprin β [2] (Meprin β 384 wpf) was 22000 nM; on meprin β [2] (Meprin β 1536 wpf), 9750 nM.

`O=C(CN(Cc1ccc(F)c(O)c1F)Cc1ccc(F)c(O)c1F)NO` [Compound 8h]: the concentration for half-maximal inhibition (IC50) in the assay on meprin α [3] (read-out: IC50 meprin α) was 626 nM; with meprin β [4] (read-out: IC50 meprin β) it was 23 nM. The “selective against meprin α” value with meprin β [4] is on record as 27 fold. In addition, in the assay on MMP and ADAM, the “effect on MMP and ADAM activity” value was “only limited effect”.

With `O=C(CN(Cc1ccc(Cl)c(O)c1F)Cc1ccc(Cl)c(O)c1F)NO` [Compound 8i], the IC50 with meprin α [3] (read-out: IC50 meprin α) is 368 nM; in the assay on meprin β [4] (read-out: IC50 meprin β), 24 nM. For the same compound, in the assay with meprin β [4], the “selective against meprin α” value was 15 fold. The “effect on MMP and ADAM activity” value with MMP and ADAM is given as “only limited effect”.

On to `O=C(CCN(CCc1ccc2c(c1)OCCO2)CCc1ccc2c(c1)OCCO2)NO` [Compound 10d], for which the “selectivity against meprin β (Selectivity Fold)” value in the assay on meprin α [3] is 18 fold. For the same compound, the IC50 with meprin α [3] (read-out: Meprin α IC50) is 160 nM; with meprin β [4] (read-out: Meprin β IC50), 2950 nM.

Regarding `O=C(CCN(CCc1ccc2c(c1)OCO2)CCc1ccc2c(c1)OCO2)NO` [Compound 10e], the “selectivity against meprin β (Selectivity Fold)” value with meprin α [3] is 19 fold. Moreover, the values for the IC50 in the assay on meprin α [3] (read-out: Meprin α IC50) and with meprin β [4] (read-out: Meprin β IC50) were 400 nM and 7590 nM, respectively.

With `O=C(CN(Cc1cccc(C(=O)O)c1)S(=O)(=O)c1cccc(C(=O)O)c1)NO` [Compound 11g], the IC50 in the assay on meprin α [3] (read-out: IC50 meprin α) is 2740 nM; in the assay on meprin β [4] (read-out: IC50 meprin β) it was 60 nM. The “selectivity against meprin α” value with meprin β [4] was 46 fold. Moreover, in the assay on MMP and ADAM, the “selectivity against adamalysins and matrixins” value is listed as “good selectivity”.

Take `Cc1nc(/N=N/c2cc(S(=O)(=O)O)c3cc([N+](=O)[O-])cc(S(=O)(=O)O)c3c2)c(COP(=O)(O)O)c(C=O)c1O` [PPNDS]: the Ki at meprin β [4] was 8 nM.

Consider `COc1ccc2c(CC(=O)N[C@@H](Cc3ccc(O)cc3)C(=O)N[C@H](C(=O)N[C@@H](C)C(=O)N[C@@H](CC(=O)O)C(=O)N[C@@H](C)C(=O)N3CCC[C@H]3C(=O)N[C@@H](CCCCN)C(=O)N[C@@H](CCCCNc3ccc([N+](=O)[O-])cc3[N+](=O)[O-])C(N)=O)C(C)C)cc(=O)oc2c1` [meprin α substrate, (Mca)-YVADAPK-(K-ε-Dnp)] (Mca-YVADAPKK(Dnp)-NH2), for which the Km at meprin α [5] was 2.4 ± 0.3 µM.
